Assay results from patent publication US6809106B1, “Quinoline derivatives as inhibitors of MEK enzymes” (AstraZeneca AB, priority 1999, dated 2004).

Columns and labels:
[1] = system: HT29 human colon tumour cells; assay: Cell proliferation assays; type: cell-based; conditions: 72 hours incubation
Experimental: Cell Proliferation Assays
Cells were seeded into multi-well plates at 20 000-40 000 cells/ml in growth medium containing 5% FCS and incubated overnight at 37° C. The compounds were prepared in fresh medium at an appropriate concentration and added to the wells containing the cells. These were then incubated for a further 72 hours. Cells were then either removed from the wells by incubating with trypsin/EDTA and counted using a Coulter counter, or treated with KIT/PMS in PBSA and optical densities read at […].

human p45MEK1 (GST-MEK) = human p45MEK1 (GST-MEK) (Homo sapiens, UniProt Q02750); assay: Assay for inhibitors of the MAP kinase pathway (coupled GST-MEK/GST-MAPK/MBP 33P assay); type: biochemical; conditions: GST-MEK activated by c-raf, MBP substrate, 8.33 μM ATP
Experimental: Assay for Inhibitors of the MAP Kinase Pathway
To evaluate inhibitors of the MAPK pathway a coupled assay was carried out which measures phosphorylation of serine/threonine residues present in the substrate in the presence or absence of inhibitor. Recombinant glutathione S-transferase fusion protein containing human p45MEK1 (GST-MEK) was activated by c-raf (Sf9 insect cell lysate from triple baculoviral infection with c-raf/ras/lck) and used for the assay. Active GST-MEK was first used to activate a recombinant glutathione S-transferase fusion protein containing p44MAP kinase (GST-MAPK) in the presence of ATP and Mg^2+ for 60min at room temperature in the presence or absence of potential inhibitors. The activated GST-MAPK was then incubated with myelin basic protein (MBP) as substrate for 10 min at room temperature in the presence of ATP, Mg^2+ and ^33P-ATP. The reaction was stopped by addition of 20% v/v phosphoric acid. Incorporation of ^33P into the myelin basic protein was determined by capture of the substrate on a filter mat, washing and counting using scintillation methods. The extent of inhibition was determined by comparison with untreated controls.
The final assay solution contained 10 mM Tris, pH 7.5, 0.05 mM EGTA, 8.33 μM [γ^33P]ATP, 8.33 mM Mg(OAc)2, 0.5 mM sodium orthovanadate, 0.05% w/v BSA, 6.5 ng GST-MEK, 1 μg GST-MAPK and 16.5 μg MBP in a reaction volume of […].

Sequence of human p45MEK1 (GST-MEK) (Q02750 whole entry): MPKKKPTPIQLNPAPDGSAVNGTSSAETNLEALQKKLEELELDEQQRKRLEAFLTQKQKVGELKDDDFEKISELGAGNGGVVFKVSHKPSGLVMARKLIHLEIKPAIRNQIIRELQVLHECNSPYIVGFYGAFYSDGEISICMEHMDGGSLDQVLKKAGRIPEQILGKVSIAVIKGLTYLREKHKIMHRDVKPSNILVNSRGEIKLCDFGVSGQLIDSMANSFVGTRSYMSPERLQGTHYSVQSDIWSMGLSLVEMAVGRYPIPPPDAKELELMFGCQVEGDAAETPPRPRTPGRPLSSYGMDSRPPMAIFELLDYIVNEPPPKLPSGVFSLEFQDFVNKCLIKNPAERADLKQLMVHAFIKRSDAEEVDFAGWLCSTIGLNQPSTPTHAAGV

IC50 [1]	IC50 (human p45MEK1 (GST-MEK))	Structure (SMILES)
3.4 µM	–	COc1cc2ncc(Cl)c(Nc3ccc(Oc4ccccc4OC)cc3)c2cc1OC [Compound 1, 4-(2-methoxyphenoxy)-anilino-3-chloro-6,7-dimethoxyquinoline]
–	1.53 µM	COc1cc2ncc(Cl)c(Nc3ccc(Cl)c(Cl)c3)c2cc1OC [Compound 5]
